Target: T1, ERα (Homo sapiens, UniProt P03372)
T1 construct: host or cells: MCF-7
T1 sequence (P03372 1-595): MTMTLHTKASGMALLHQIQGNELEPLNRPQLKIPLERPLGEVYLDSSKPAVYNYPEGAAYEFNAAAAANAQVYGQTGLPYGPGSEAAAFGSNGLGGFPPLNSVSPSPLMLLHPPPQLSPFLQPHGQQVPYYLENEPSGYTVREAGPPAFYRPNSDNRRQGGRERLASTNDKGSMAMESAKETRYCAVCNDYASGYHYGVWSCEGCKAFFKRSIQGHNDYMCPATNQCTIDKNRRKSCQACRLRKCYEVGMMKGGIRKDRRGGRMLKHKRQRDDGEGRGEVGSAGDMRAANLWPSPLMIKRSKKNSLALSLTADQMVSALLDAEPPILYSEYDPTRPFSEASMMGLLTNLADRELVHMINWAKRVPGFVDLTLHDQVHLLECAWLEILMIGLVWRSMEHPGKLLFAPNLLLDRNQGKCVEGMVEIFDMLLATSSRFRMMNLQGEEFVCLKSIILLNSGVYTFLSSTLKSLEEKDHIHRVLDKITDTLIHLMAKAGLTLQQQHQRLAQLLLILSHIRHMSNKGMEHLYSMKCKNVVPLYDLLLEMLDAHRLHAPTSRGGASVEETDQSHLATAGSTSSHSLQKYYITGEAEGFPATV
Experiment: ER degradation activity in MCF-7 cells (Western blot, grayscale intensity)
Format: cell-based
Conditions: 6 hours treatment, 1 nM to 100 nM, concentration required to degrade 50% of the target protein
Method: ERα-positive human breast cancer cells MCF-7 (ATCC, HTB-22) were cultured with EMEM medium (ATCC, catalog number 30-2003) containing 10% fetal bovine serum (Thermo Fisher, catalog number 10099141) and 10 µg/mL bovine insulin in 25 cm^2 or 75 cm^2 plastic tissue culture flasks in a 37 °C incubator with 5% CO2. The cells were passaged 2 to 3 times per week. MCF-7 cells were seeded in 6-well plate at 1×10^6 cells/well with 1.8 mL culture medium per well, and cultured in a 37 °C incubator with 95% air and 5% CO2. After 24 hours, the test compounds were added: the compounds were serially diluted 10-fold in DMSO starting from 10 mM (dissolved in DMSO) to prepare gradient stock solutions. A complete culture medium containing 1% DMSO was prepared for further dilution, temporarily named as the "dilution buffer." Working solutions were prepared by diluting each stock solution with 99 times the volume of dilution buffer, that is, by adding 1 µL of the 10 mM stock solution to 99 µL of the dilution buffer and mixing thoroughly.
Finally, […] of the working solution was added to the cell-seeded culture plate. The final concentration of DMSO in the cell culture medium was 0.2%, and the final concentration of the test compounds ranged from 1 nM to 100 nM. The cells were then incubated at 37 °C for 6 hours.
The culture medium was removed, and the cells were washed twice with ice cold PBS. 1 mL of PBS was added to each well, and the cells were collected into EP tubes using a cell scraper, and centrifuged at 4 °C, 4000 rpm for 5 minutes. PBS was aspirated. Total protein was extracted using the Minute™ Mammalian Tissue/Cell Total Protein Extraction Reagent. The protein concentration was measured using the BCA protein assay kit. 30 µg of protein was taken and mixed with 5× SDS-PAGE loading buffer, boiled for 10 minutes, and cooled. The samples were loaded into wells of a precast gel, with constant voltage at 80 V for 30 minutes, and then the voltage was changed to 120 V after the samples entered the resolving gel. The "sandwich" (sponge - filter paper - gel - membrane - filter paper - sponge) was assembled for Bio-Rad's Transblot. Transfer was performed for 1 hour at 0.3 amp at 4 °C. The sample was blocked with 5% fat-free milk for 1 hour, and incubated with Estrogen Receptor alpha Antibody (Thermo Fisher, catalog number MA5-14104) overnight at 4 °C. The membrane was washed with TBST to remove non-specifically bound antibodies, and then incubated with goat anti-mouse IgG-HRP secondary antibody for 1 hour at room temperature, and was visualized using ECL. The protein degradation level was calculated by measuring the grayscale intensity.
The DC50 values (i.e., the concentration of the test compounds required to degrade 50% of the target protein) were calculated and shown in Table 1. A corresponds to a DC50 value below 10 nM, B corresponds to a DC50 value greater than 10 nM and less than 100 nM, and C corresponds to DC50 values greater than 100 nM. Table 1. The DC50 values of exemplary compounds in MCF-7 cells

CC1(C)CC(=C(c2ccc(N3CCN(C[C@@H]4[C@H]5CN(c6ccc7c(c6)CN(C6CCC(=O)NC6=O)C7=O)C[C@@H]45)CC3)nc2)c2ccc3[nH]nc(F)c3c2)CC(C)(C)O1 (stereo partly drawn) [Compound 52]
DC50: > 0.1 µM

CC1(C)CC(=C(c2ccc(N3CCN(C4CC5(CCN(c6ccc7c(c6)CN(C6CCC(=O)NC6=O)C7=O)C5)C4)CC3)nc2)c2ccc3[nH]nc(F)c3c2)CC(C)(C)O1 (stereo not drawn) [Compound 53]
DC50: > 0.1 µM

CC1(C)CC(=C(c2ccc(N3CCC4(CC3)CC(CN3CCN(c5ccc6c(c5)CN(C5CCC(=O)NC5=O)C6=O)CC3)C4)nc2)c2ccc3[nH]nc(F)c3c2)CC(C)(C)O1 (stereo not drawn) [Compound 54]
DC50: > 0.1 µM

CC1(C)CC(=C(c2ccc3[nH]nc(F)c3c2)c2c(F)cc(N3CCC(CN4CCN(c5ccc6c(c5)CN(C5CCC(=O)NC5=O)C6=O)CC4)CC3)cc2F)CC(C)(C)O1 (stereo not drawn) [Compound 55]
DC50: > 0.1 µM

CC1(C)CC(=C(c2ccc(N3CCC(CNC4CN(c5ccc6c(c5)CN(C5CCC(=O)NC5=O)C6=O)C4)CC3)nc2)c2ccc3[nH]nc(F)c3c2)CC(C)(C)O1 (stereo not drawn) [Compound 57]
DC50: < 0.01 µM

CC1(C)CC(=C(c2ccc(N3CCC(N4CCN(c5ccc6c(c5)CN(C5CCC(=O)NC5=O)C6=O)CC4)CC3)cc2)c2ccc3[nH]ncc3c2)CC(C)(C)O1 (stereo not drawn) [Compound 58]
DC50: > 0.1 µM

CC1(C)CC(=C(c2ccc(N3CCC(F)(CN4CCN(c5ccc6c(c5)CN(C5CCC(=O)NC5=O)C6=O)CC4)CC3)nc2)c2ccc3[nH]nc(F)c3c2)CC(C)(C)O1 (stereo not drawn) [Compound 59]
DC50: 0.01 to 0.1 µM

CC1(C)CC(=C(c2ccc(OC3CCN(C4CCN(c5ccc6c(c5)CN(C5CCC(=O)NC5=O)C6=O)CC4)CC3)nc2)c2ccc3[nH]nc(F)c3c2)CC(C)(C)O1 (stereo not drawn) [Compound 60]
DC50: > 0.1 µM

CC1(C)CC(=C(c2ccc(N3CCC(F)(CNC4CCN(c5ccc6c(c5)CN(C5CCC(=O)NC5=O)C6=O)CC4)CC3)nc2)c2ccc3[nH]nc(F)c3c2)CC(C)(C)O1 (stereo not drawn) [Compound 61]
DC50: < 0.01 µM

CC1(C)CC(=C(c2ccc(N3CCC4(CC3)CC(N3CCN(c5ccc6c(c5)CN(C5CCC(=O)NC5=O)C6=O)CC3)C4)cc2)c2ccc3[nH]nc(F)c3c2)CC(C)(C)O1 (stereo not drawn) [Compound 62]
DC50: > 0.1 µM

CC1(C)CC(=C(c2ccc(N3CCC4(CC3)CC(N3CCC(c5ccc6c(c5)CN(C5CCC(=O)NC5=O)C6=O)CC3)C4)nc2)c2ccc3[nH]nc(F)c3c2)CC(C)(C)O1 (stereo not drawn) [Compound 63]
DC50: > 0.1 µM

CC1(C)CC(=C(c2ccc(N3CCN(C(=O)C4CCN(c5ccc6c(c5)CN(C5CCC(=O)NC5=O)C6=O)CC4)CC3)nc2)c2ccc3[nH]nc(F)c3c2)CC(C)(C)O1 (stereo not drawn) [Compound 65]
DC50: > 0.1 µM

CC1(C)CC(=C(c2ccc(N3CCN(C4CCN(c5ccc6c(c5)CN(C5CCC(=O)NC5=O)C6=O)CC4)CC3)cc2)c2ccc3[nH]ncc3c2)CC(C)(C)O1 (stereo not drawn) [Compound 66]
DC50: 0.01 to 0.1 µM

CC1(C)CC(=C(c2ccc(N3CCN(C4CCN(c5ccc6c(c5)CN(C5CCC(=O)NC5=O)C6=O)CC4)CC3)nc2)c2ccc3[nH]nc(F)c3c2)CC(C)(C)O1 (stereo not drawn) [Compound 67]
DC50: > 0.1 µM

CC1(C)CC(=C(c2ccc(N3CCC(CN4CCC(N5Cc6cc7c(cc6C5)C(=O)N(C5CCC(=O)NC5=O)C7)CC4)CC3)nc2)c2ccc3[nH]nc(F)c3c2)CC(C)(C)O1 (stereo not drawn) [Compound 69]
DC50: < 0.01 µM

CC1(C)CC(=C(c2ccc(N3CCC4(CC3)CN(C(=O)CN3Cc5cc6c(cc5C3)C(=O)N(C3CCC(=O)NC3=O)C6)C4)nc2)c2ccc3[nH]nc(F)c3c2)CC(C)(C)O1 (stereo not drawn) [Compound 70]
DC50: 0.01 to 0.1 µM

CC1(C)CC(=C(c2ccc(N3CC4(CCN(C(=O)CN5Cc6cc7c(cc6C5)C(=O)N(C5CCC(=O)NC5=O)C7)C4)C3)nc2)c2ccc3[nH]nc(F)c3c2)CC(C)(C)O1 (stereo not drawn) [Compound 71]
DC50: > 0.1 µM

CC1(C)CC(=C(c2ccc(N3CCC4(CN(C(=O)CN5Cc6cc7c(cc6C5)C(=O)N(C5CCC(=O)NC5=O)C7)C4)C3)nc2)c2ccc3[nH]nc(F)c3c2)CC(C)(C)O1 (stereo not drawn) [Compound 72]
DC50: > 0.1 µM

CC1(C)CC(=C(c2ccc(N3CCC4(CC3)CN(C(=O)CN3Cc5cc6c(cc5C3)C(=O)N(C3CCC(=O)NC3=O)C6=O)C4)nc2)c2ccc3[nH]nc(F)c3c2)CC(C)(C)O1 (stereo not drawn) [Compound 74]
DC50: > 0.1 µM

CC1(C)CC(=C(c2ccc(N3CCC(CN4CCN(c5cccc(N6CCC(=O)NC6=O)c5)CC4)CC3)nc2)c2ccc3[nH]nc(F)c3c2)CC(C)(C)O1 [Compound 75]
DC50: > 0.1 µM

CC1(C)CC(=C(c2ccc(N3CCC(CN4CCN(c5ccc(N6CCC(=O)NC6=O)cc5)CC4)CC3)cc2)c2ccc3[nH]nc(F)c3c2)CC(C)(C)O1 [Compound 76]
DC50: 0.01 to 0.1 µM

CC1(C)CC(=C(c2ccc(N3CCC(N4CCN(c5ccc(N6CCC(=O)NC6=O)cc5)CC4)CC3)cc2)c2ccc3[nH]nc(F)c3c2)CC(C)(C)O1 [Compound 78]
DC50: > 0.1 µM

CC1(C)CC(=C(c2ccc(N3CCN(C4CCN(c5ccc(N6CCC(=O)NC6=O)cc5)CC4)CC3)cc2)c2ccc3[nH]nc(F)c3c2)CC(C)(C)O1 [Compound 81]
DC50: > 0.1 µM

CC1(C)CC(=C(c2ccc(N3CCN(C4CN(c5ccc(N6CCC(=O)NC6=O)cc5)C4)CC3)cc2)c2ccc3[nH]nc(F)c3c2)CC(C)(C)O1 [Compound 82]
DC50: > 0.1 µM

CC1(C)CC(=C(c2ccc(N3CCC(CN4CCN(c5ccc(F)c(NC6CCC(=O)NC6=O)c5)CC4)CC3)nc2)c2ccc3[nH]nc(F)c3c2)CC(C)(C)O1 (stereo not drawn) [Compound 83]
DC50: < 0.01 µM

CC1(C)CC(=C(c2ccc(N3CC4(CN(C(=O)CN5CCC(c6ccc(NC7CCC(=O)NC7=O)cc6F)CC5)C4)C3)nc2)c2ccc3[nH]nc(F)c3c2)CC(C)(C)O1 (stereo not drawn) [Compound 84]
DC50: > 0.1 µM

CC1(C)CC(=C(c2ccc(N3CCC(N4CCN(c5ccc(NC6CCC(=O)NC6=O)cc5)CC4)CC3)cc2)c2ccc3[nH]nc(F)c3c2)CC(C)(C)O1 (stereo not drawn) [Compound 86]
DC50: > 0.1 µM

CC1(C)CC(=C(c2ccc(N3CCC(CN4CCN(c5ccc(NC6CCC(=O)NC6=O)cc5)CC4)CC3)cc2)c2ccc3[nH]nc(F)c3c2)CC(C)(C)O1 (stereo not drawn) [Compound 87]
DC50: > 0.1 µM

CC1(C)CC(=C(c2ccc(N3CCN(C4CCN(c5ccc(NC6CCC(=O)NC6=O)cc5)CC4)CC3)cc2)c2ccc3[nH]nc(F)c3c2)CC(C)(C)O1 (stereo not drawn) [Compound 91]
DC50: > 0.1 µM

Cn1nc(N2CCC(=O)NC2=O)c2ccc(C3CCN(CC(=O)N4CCN(c5ccc(C(=C6CC(C)(C)OC(C)(C)C6)c6ccc7[nH]nc(F)c7c6)cn5)CC4)CC3)cc21 [Compound 92]
DC50: > 0.1 µM

Cn1nc(N2CCC(=O)NC2=O)c2ccc(C3CCN(CC(=O)N4CCN(c5ccc(C(=C6CC(C)(C)OC(C)(C)C6)c6ccc7[nH]nc(F)c7c6)cn5)CC4)CC3(F)F)cc21 (stereo not drawn) [Compound 93]
DC50: > 0.1 µM

Cn1nc(N2CCC(=O)NC2=O)c2ccc(C3CCN(CC(=O)N4CC5(C4)CN(c4ccc(C(=C6CC(C)(C)OC(C)(C)C6)c6ccc7[nH]nc(F)c7c6)cn4)C5)CC3(F)F)cc21 (stereo not drawn) [Compound 94]
DC50: > 0.1 µM

Cn1nc(N2CCC(=O)NC2=O)c2ccc(C3CCN(CC(=O)N4CC5(C4)CN(c4ccc(C(=C6CC(C)(C)OC(C)(C)C6)c6ccc7[nH]nc(F)c7c6)cn4)C5)CC3)cc21 [Compound 95]
DC50: > 0.1 µM

Reference: patent publication EP4722209A1 (Beijing Shenogen Pharma Group, priority 2023, dated 2024)
